Where a SMILES comes first, the peptide text is derived from it. The star is where a group is joined. Cbz = O=C(OCc1ccccc1)*; CH2F = FC*
Columns and labels:
cardiac myocytes [1] = assay: Effect of PARP-1 inhibitor and caspase inhibitor on apoptosis of cardiac myocytes induced by recombinant eIF5A (RCP) (TUNEL); format: cell-based, rat; details: inhibitor added 1 hour before recombinant eIF5A (RCP), 3-aminobenzamide 2 mM, Z-VAD.fmk 100 μM, TUNEL at 72 hours
[2] = Isoelectric point by two-dimensional gel electrophoresis and Western blotting; format: physicochemical; details: two-dimensional gel electrophoresis, tagged recombinant protein
Experimental: Quail muscle cells were transfected with eIF5A-myc-His vector and myc- and His-tagged recombinant eIF5A protein was collected from the cytoplasm of the transfected cells. Similarly, quail muscle cells were trasfected with the eIF5A-FLAG-His vector, the cells were incubated in hypoxia/reoxygenation-conditioned PBS (RCP), and a FLAG- and His-tagged recombinant eIF5A protein was collected from the culture supernatant. The proteins were treated with Ni-NTA Purification System (Invitrogen), and after that gel filtration was performed with phosphate buffer containing 0.15 M NaCl (pH 7.4) using Superdex 200™ 10-300GL (GE Healthcare, 1.0×30 cm, bed capacity 24 mL) to purify the myc- and FLAG-tagged recombinant eIF5A proteins. The first dimensional isoelectric focusing was performed with Immobiline DryStrip (pH 4 to 7, GE Healthcare) which had been allowed to swell overnight with a sample dissolved in 7 M urea, 2 M thiourea, 4% CHAPS, 65 mM dithioerythritol [DTE], 2% IPG buffer pH 4 to 7 (GE Healthcare) and bromophenol blue [BPB]. The electrophoresis was performed at a voltage of 30 V for 7 hours, at 60V for 7 hours, at 60 to 200 V for 30 min, at 200 to 500 V for 30 min, at 500 to 1000 V for 30 min, at 1000 to 8000 V for 30 min, and at 8000 V for 2 hours (19.4 kVh in total). The second dimensional SDS-PAGE was performed with a gel (concentrated gel 4% acrylamide, 2.6% piperazine diacrylamide [PDA], separating gel 12% acrylamide, 2.6% PDA) and the electrophoresis was performed at 12 mA for 2 hours. The gel was transferred to a PVDF membrane, and then the myc- and FLAG-tagged recombinant eIF5A proteins were analyzed by Western blotting. First, the proteins were analyzed using anti-myc monoclonal antibody (Invitrogen), biotinylated anti-mouse IgG antibody and Vectastain ABC-AP Kit (Vector) and then detected with alkaline phosphatase and chemiluminescence. Then, the proteins were analyzed using anti-FLAG monoclonal antibody (M2, Sigma) and horseradish peroxidase (HRP)-labeled anti-mouse IgG antibody and detected with Konica Immunostain HRP-1000 Kit (Konica Corporation).
(1) As thioredoxin has been known to act as antioxidant by reducing other proteins and play a protective role against oxidative stress-induced cell injury, eIF5A was considered to be a candidate of an apoptosis inducing humoral factor. eIF5A is the only protein known to contain a unique amino acid hypusine, which is formed post-translationally by two-steps of an enzymatic reaction. eIF5A has been known to be localized mainly in the cytoplasm under normal conditions where hypusinated eIF5A facilitates translation of mRNAs involved in cell proliferation. However, no study to date has reported that eIF5A can be released extracellularly and act as an apoptosis-inducing factor. To confirm that eIF5A is actually released from cardiac myocytes in response to hypoxia/reoxygenation and the released eIF5A can induce apoptosis of cardiac myocytes, quail muscle cells (CRL-1962, ATCC) were transfected with an expression vector containing the FLAG- and His-tagged human eIF5A gene, incubated with hypoxic PBS, and then incubated with normoxic PBS. The reoxygenation-conditioned PBS (RCP) was collected, concentrated, and purified using Ni-NTA Purification System (Invitrogen), and recombinant protein ([RCP] re-eIF5A) was extracted by gel filtration. (2) Similarly, recombinant human eIF5A ([cytosolic] re-eIF5A) was extracted from cytosolic fractions of the untreated transfected cells. (3) After these recombinant eIF5A proteins were separated by two-dimensional electrophoresis, the resultant was analyzed by Western blotting with anti-FLAG M2 mAb (Sigma) (FIG. 2b). […] Specifically, spots having higher pI values, such as hypusinated eIF5A (spots B and B′ in FIG. 2b), and spots having lower pI values, such as unhypusinated eIF5A (spots A and A′ in FIG. 2b) were identified. There was no detectable spots of deoxyhypusinated intermediate (references Taylor, C. A., et al. Exp. Cell Res. 313, 437-449). […]

[3] = system: cultured cardiac myocytes; assay: Induction of apoptosis of cultured cardiac myocytes by recombinant eIF5A proteins (TUNEL / cardiac myosin double staining); format: cell-based, rat; details: recombinant protein 10 μg/mL
[4] = system: cultured cardiac myocytes; assay: Subcellular translocation of apoptosis-inducing factor (AIF) in cultured cardiac myocytes; format: cell-based, rat; details: double staining for AIF and Hoechst 33342
Experimental: Tyramide Signal Amplification (TSA) technology was used for fluorescence (TSA™ Biotin System, NEN Life Science Products, PerkinElmer; according to the manufacture's instruction). Cardiac myocytes were treated with a recombinant eIF5A (RCP) for a predetermined time and fixed with 4% paraformaldehyde in PBS for 15 min. The cells were washed with PBS and then incubated with rabbit anti-AIF mAb (E20; Epitomics Inc.) for 1 hour. The cells were washed, then incubated with biotinylated anti-rabbit IgG antibody (Chemicon International, Inc.) for 1 hour, washed, and incubated with streptavidin-horseradish peroxidase (Vector) for 30 min. The cells were washed in TNT buffer (0.1 M Tris-HCl, pH 7.5, 0.15 M NaCl, 0.05% Tween 20) and then incubated with biotinylated-tyramide for appropriate time (3 to 10 min). The cells were washed in TNT buffer and then incubated with FITC-labeled avidin-D (Vector) for 30 min. Nuclei were stained with 1 μg·mL^−1 Hoechst 33342 (DOJINDO Laboratories, Kumamoto, Japan). Confocal laser microscopy was performed on LSM510 Laser Scanning Microscope (Zeiss).

cardiac myocytes [5] = assay: Electron microscopy of nuclear chromatin in cardiac myocytes; format: cell-based, rat
Experimental: The cardiac myocytes were treated with recombinant eIF5A for a predetermined period. The cells were fixed in 2% glutaraldehyde, postfixed in 2% osmium tetraoxide, dehydrated in ethanol, and embedded in a resin. Ultrathin section were prepared, stained with uranyl acetate and lead citrate, and examined with an electron microscope (H-7000, HITACHI, Japan).

[6] = system: cultured cardiac myocytes; assay: Annexin V staining of cultured cardiac myocytes; format: cell-based, rat
Experimental: Cardiac myocytes were treated with a recombinant eIF5A (RCP) for a predetermined time. The cells were incubated with biotinylated-annexin V in 1× binding buffer (Annexin V-Biotin Apoptosis Detection Kit, BioVision Inc.) for 5 min and then fixed with 2% paraformaldehyde in PBS for 15 min. After washing in PBS, the cells were incubated with streptavidin-horseradish peroxidase (Vector) for 30 min. The subsequent procedures for immunofluorescence by TSA technology were the same as for AIF. To distinguish cardiac myocytes from non-muscle cells, cells were further incubated with mouse anti-cardiac myosin (clone CMA19) mAb (Non Patent Literature 1), followed by incubation with tetramethyl rhodamine isothiocyanate (TRITC)-conjugated anti-mouse IgG antibody, and then photographed in a fluorescence microscope.

[7] = system: cultured cardiac myocytes; assay: Release of cytochrome c from mitochondria (Western blot of cytosolic fraction); format: cell-based, rat; details: peak at 48 hours
Experimental: Cultured cardiac myocytes were treated with a recombinant eIF5A for a predetermined time. Nucleic, mitochondrial, and cytosolic fraction of the cells were prepared as described in Non Patent Literatures 1 and 2. Briefly, 3×10^6 cells were washed in PBS, and suspended in 250 μl of a lysis buffer (250 mM sucrose, 50 mM Pipes/KOH, pH7.4, 50 mM KCl, 5 mM EGTA, 2 mM MgCl2, 1 mM DTT, and 1 mM PMSF). After 30 min on ice, the cells were lysed with 40 strokes using pestle B in a Dounce homogenizer, and centrifuged at 80 g for 10 min. The pellets were collected as the nucleic fraction. Then, the supernatants were prepared from cell lysates by centrifugation at 20,000 g for 20 min. The pellets were collected as the mitochondrial fraction, and the supernatants were regarded as the cytosolic fraction. The nucleic, mitochondrial, and cytosolic fractions were subjected to Western blot analysis with rabbit anti-AIF mAb (E20; Epitomics Inc., CA, USA) or mouse anti-cytochrome c mAb (7H, 8.2; C12; Lab Vision Corp., CA, USA). The antibody-antigen complexes were developed with a chemiluminescence system using alkalinephosphatase (New England Biolabs, Inc.).

[8] = system: human glioblastoma cells (ATCC; CRL-1690); assay: Apoptosis induction by recombinant eIF5A (TUNEL), glioblastoma cells; format: cell-based; details: 10 μg/ml, 30 to 36 hours
Experimental: (§1) Quail muscle cells (ATCC; CRL-1962), HeLa cells, human hepatocellular carcinoma cells (ATCC; HB-8064), and human glioblastoma cells (ATCC; CRL-1690) were incubated on a culture slide (BD Falcon) until they were confluent. These cells were treated with a recombinant eIF5A (10 μg/ml) for a predetermined time and fixed. Terminal deoxynucleotidyl transferase nick-end-labeled (TUNEL) staining was performed in situ with an Apoptosis Detection Kit (Takara Bio Inc.).

[9] = system: cultured cardiac myocytes; assay: Activation of caspase-3 (Western blot); format: cell-based, rat; details: peak at 48 hours
Hela cells = assay: Apoptosis induction by recombinant eIF5A (TUNEL), HeLa cells; format: cell-based, human; details: 10 μg/ml, 30 to 36 hours
Experimental: as §1

[10] = system: human hepatocellular carcinoma cells (ATCC; HB-8064); assay: Apoptosis induction by recombinant eIF5A (TUNEL), hepatocellular carcinoma cells; format: cell-based; details: 10 μg/ml, 30 to 36 hours
Experimental: as §1

[11] = system: Quail muscle cells (ATCC; CRL-1962); assay: Apoptosis induction by recombinant eIF5A (TUNEL), quail muscle cells; format: cell-based; details: 10 μg/ml, normal cells, up to 72 hours
Experimental: as §1

COC(=O)C[C@H](NC(=O)[C@H](C)NC(=O)[C@@H](NC(=O)OCc1ccccc1)C(C)C)C(=O)CF [Z-VAD.fmk] (Cbz-Val-Ala-Asp(OMe)-CH2F)
inhibition of apoptosis induction by recombinant eIF5A (RCP) (cardiac myocytes [1]): ~70%

secreted hypusinated eIF5A: hypusinated form of secreted eIF5A from RCP, spot B′
isoelectric point [2]: approx. 5.4 | isoelectric point ([2]; listed as spot B′): 5.4

cytosolic unhypusinated eIF5A: unhypusinated form of conventionally known cytosolic eIF5A, spot A in two-dimensional electrophoresis [reference compound]
isoelectric point [2]: approx. 5.4 | isoelectric point ([2]; listed as spot A): 5.4

secreted unhypusinated eIF5: unhypusinated form of secreted eIF5A from RCP, spot A′
isoelectric point [2]: approx. 5.3 | isoelectric point ([2]; listed as spot A′): 5.3

cytosolic (mostly unhypusinated) eIF5A: recombinant human eIF5A extracted from cytosolic fractions of untreated transfected cells [reference compound]
induction of apoptosis of cultured cardiac myocytes (TUNEL and cardiac myosin double staining) [3]: almost no cardiac myocytes underwent apoptosis

NC(=O)c1cccc(N)c1 [3-aminobenzamide]
inhibition at 2000 µM (cardiac myocytes [1]; Rattus norvegicus, read-out: inhibition of apoptosis induction by recombinant eIF5A (RCP)): ~30%

recombinant mutant eIF5A (K50A) derived from RCP: K50A mutant eIF5A secreted into reoxygenation-conditioned PBS by transfected quail muscle cells
induction of apoptosis of cultured cardiac myocytes (TUNEL and cardiac myosin double staining) [3]: only partially induced apoptosis

cytosolic hypusinated eIF5A: hypusinated form of conventionally known cytosolic eIF5A, spot B in two-dimensional electrophoresis [reference compound]
isoelectric point [2]: approx. 5.5 | isoelectric point ([2]; listed as spot B): 5.5

recombinant eIF5A (RCP): FLAG- and His-tagged human eIF5A collected from reoxygenation-conditioned PBS of transfected quail muscle cells; secreted form
translocation of the apoptosis-inducing factor (AIF) from the cytosol (mitochondria) to the nucleus [4]: induced translocation | nuclear chromatin by electron microscopy (cardiac myocytes [5]): hypercondensation of nuclear chromatins | induction of apoptosis by Annexin-V staining [6]: further confirmed | cytosolic fractions of cytochrome c [7]: markedly increased | induction of apoptosis (TUNEL staining) [8]: induced apoptosis | induction of apoptosis of cultured cardiac myocytes (TUNEL and cardiac myosin double staining) [3]: potently induced apoptosis | active form of caspase-3 [9]: markedly increased | induction of apoptosis (TUNEL staining) (Hela cells): induced apoptosis | induction of apoptosis (TUNEL staining) [10]: induced apoptosis | induction of apoptosis (TUNEL staining) [11]: not induced until 72 hours

From patent publication US8492521B2, “Oxidative stress responsive apoptosis inducing protein eIF5A” (priority 2008, dated 2013)
